According to PMC10531095, “Photonics of Some Monomethine Cyanine Dyes in Solutions and in Complexes with Biomolecules” (International Journal of Molecular Sciences, 2023):

Key:
[1] = target: T1, human serum albumin (HSA) (Homo sapiens, UniProt P02768); test: Spectral fluorescent titration of the dyes with HSA in PBS; type: binding; conditions: for LR, linear portion of fluorescence intensity vs. concentration plot / nHill, Hill coefficient / KeffHill, effective complexation constant (Hill) / KeffBH, effective complexation constant (Benesi–Hildebrand) / αb, proportion of bound dye / Fmax/F0, fluorescence growth at 100% binding / K2Sc, complexation constant (Scatchard): HSA; for nSc, stoichiometric coefficient (Scatchard): HSA (nSc = 1 taken for HSA); for KeffHill, effective complexation constant (Hill) / KeffBH, effective complexation constant (Benesi–Hildebrand): PBS buffer; for KeffBH, effective complexation constant (Benesi–Hildebrand): fluorescent titration; for αb, proportion of bound dye: cbiomol = 5 × 10^−5 mol L^−1; for Fmax/F0, fluorescence growth at 100% binding: from the Benesi–Hildebrand dependence; for K2Sc, complexation constant (Scatchard): nSc = 1; for φfl^b, fluorescence quantum yield of the dye in the presence of biopolymer: cHSA~5 × 10^−5 mol L^−1; for LOD: detection of HSA; for LOQ: quantification of HSA
T1 construct: purchased Sigma-Aldrich
Text: (§1) Complexation of MCD 1–4 with DNA (double-stranded and single-stranded) and with human serum albumin (HSA) was studied by spectral fluorescent methods in a wide range of biopolymer concentrations (cdsDNA = 0–1.5 × 10^−4 mol L^−1; cssDNA = 0–1.4 × 10^−4 mol L^−1; cHSA = 0–1.4 × 10^−4 mol L^−1 in PBS buffer). The absorption, fluorescence, and fluorescence excitation spectra of MCD 1 and 3 in the presence of dsDNA are shown in Figure 3 and Figure 4, respectively.
(§2) The complication of chemical equilibrium, and the variety of interactions between MCD and biopolymer (dye aggregation/deaggregation, the possibility of forming complexes of several types with DNA/HSA) makes it problematic to determine the exact values of the complexation constants of the dyes with DNA. The values of the effective equilibrium constants of the complexation reaction of MCD with biopolymers (Keff, L mol^−1, see Table 7) were estimated from spectral fluorescent data. In this case, we had to assume a simple equilibrium MCD (monomer, free) ⇄ MCD (monomer, bound). For these purposes, we used the Benesi–Hildebrand [59], Hill, and Scatchard formalisms (See Supplementary Materials, Equations (S9)–(S13)). For dsDNA, fitting according to the modified Scatchard equation was carried out assuming one dye molecule per one DNA turn (K1Sc at nSc = const = 10 b.p.), as well as varying both the constant (K2Sc) and the stoichiometric coefficient (nSc). In the case of ssDNA, nSc is given per one base; for HSA, nSc = 1.
Distilled water, 0.01 M aqueous phosphate buffer saline solution (PBS; pH 7.4, containing 0.137 M NaCl and 0.0027 M KCl), ethanol, benzyl alcohol, isopentyl alcohol, acetonitrile, DMSO, 1,4-dioxane, chloroform, DMSO, acetone, methyl ethyl ketone, ethyl acetate (all analytical grade). Commercial chick erythrocyte DNA (Reanal, Budapest, Hungary) and human serum albumin (HSA, Sigma-Aldrich, St. Louis, MO, USA) were used.
(§3) Absorption spectra were recorded on an SF-2000 spectrophotometer (Experimental-Construction Company “Spectrum”, St. Petersburg, Russia); fluorescence and fluorescence excitation spectra were recorded on a Fluorat-02-Panorama spectrofluorimeter (Group of Companies “Lumex”, St. Petersburg, Russia). The fluorescence and fluorescence excitation spectra were corrected for the spectral characteristics of the instrument (excitation channel signal) and sample transmission. Changes in the intrinsic fluorescence of HSA upon binding of MCD (in the presence of the dyes) were recorded in the synchronous fluorescence scanning (SFS) mode. In SFS mode, when registering spectra, a fixed difference Δλ= λfl − λex is maintained for the channels of excitation and registration. Synchronous scanning spectra were obtained at Δλ = 15 nm (fluorescence of tyrosine residues in the HSA molecule) and Δλ = 60 nm (fluorescence of tryptophan). The spectra were measured in 1 cm quartz semi-micro cells (Bio-Rad, Hercules, CA, USA).
The equilibrium constants of MCD complexation with biomolecules (Ka, L mol^−1) were obtained from fluorescence spectra using the Benesi–Hildebrand [59], Hill, and Scatchard equations [61] (see Supplementary Materials, Equations (S9)–(S13)). Limits of detection (LOD) and quantification (LOQ) of biomolecules were determined from concentration plots of MCD fluorescence intensities (see Supplementary Materials, Equations (S14) and (S15)). […]
1. Spectral‐Fluorescent Titration
In experiments on spectral‐fluorescence titration, MCD 1–4 were dosed from their concentrated st ock solutions in EtOH. Microvolumes (~0.5–5 μL) were dosed into the measuring cell (dilution 1:500 – 1:1000). […]
Measurements of the intrinsic fluorescence of HSA in the presence of MCD were carried out at a constant concentration of HSA (cHSA ~ 2.0 × 10–5 mol L–1) by titration with increasing concentrations of dyes. After stirring, the absorption and fluorescence spectra of the dyes were recorded several times. […]

ssDNA = test: Spectral fluorescent titration of the dyes with ssDNA in PBS; type: binding, chick; conditions: for φfl^b, fluorescence quantum yield of the dye in the presence of biopolymer: cssDNA~5 × 10^−5 mol L^−1; for LOD: detection of ssDNA; for LOQ: quantification of ssDNA; for K1Sc, complexation constant (Scatchard) / nHill, Hill coefficient / KeffHill, effective complexation constant (Hill) / KeffBH, effective complexation constant (Benesi–Hildebrand) / αb, proportion of bound dye / K2Sc, complexation constant (Scatchard) / Fmax/F0, fluorescence growth at 100% binding / nSc, stoichiometric coefficient (Scatchard): ssDNA; for KeffHill, effective complexation constant (Hill) / KeffBH, effective complexation constant (Benesi–Hildebrand): PBS buffer; for KeffBH, effective complexation constant (Benesi–Hildebrand): fluorescent titration; for αb, proportion of bound dye: cbiomol = 5 × 10^−5 mol L^−1; for K2Sc, complexation constant (Scatchard): constant and nSc both varied; for Fmax/F0, fluorescence growth at 100% binding: from the Benesi–Hildebrand dependence; for nSc, stoichiometric coefficient (Scatchard): per one base
Text: as §1, §2
(§4) Single-stranded form of DNA (single-stranded DNA; ssDNA) was obtained according to the method described in [74]. The concentrations of DNA and the dyes were controlled spectrophotometrically. Molar extinction coefficient of dsDNA (ε, L⋅mol^−1⋅cm^−1) was taken to be 13,200 L mol^−1 cm^−1 (per base pair); for ssDNA, ε = 9045 L mol^−1 cm^−1 (per one base) was used. For MCD 1 and 2 in an aqueous buffer solution, we used extinction coefficients ε = 40,000 and 68,000 L mol^−1 cm^−1, respectively, which were taken from. For MCD 3 and 4, the molar extinction coefficients in ethanol solution were 69,200 and 49,000 L mol^−1 cm^−1 (taken from). […] Spectral fluorescent characteristics of MCD in complexes with biomacromolecules were studied by titration of dye solutions (see Supplementary Materials). The thermal dissociation (“melting”) of dsDNA in the presence of MCD was studied spectrophotometrically (λabs = 260 nm), the sample was heated (t° = 30–95 °C) using Peltier cells, and the temperature was controlled using a thermocouple. Melting points tm, corresponding to 50% hyperchromia of DNA samples were obtained.
as §3
(§5) The equilibrium constants of MCD complexation with biomolecules (Ka, L mol^−1) were obtained from fluorescence spectra using the Benesi–Hildebrand [59], Hill, and Scatchard equations [61] (see Supplementary Materials, Equations (S9)–(S13)). […]

dsDNA = test: Spectral fluorescent titration of the dyes with dsDNA in PBS; type: binding, chick; conditions: for Ifl/Ifl0, relative increase in the fluorescence intensity: cdsDNA = 1 × 10^−4 mol L^−1; for hypochromia of the absorption band: cdsDNA = 1 × 10^−4 mol L^−1, compared to the initial spectra in PBS; for φfl^b, fluorescence quantum yield of the dye in the presence of biopolymer: cdsDNA~5 × 10^−5 mol L^−1; for LOD: detection of dsDNA; for nHill, Hill coefficient / nSc, stoichiometric coefficient (Scatchard) / KeffHill, effective complexation constant (Hill) / KeffBH, effective complexation constant (Benesi–Hildebrand) / αb, proportion of bound dye / K2Sc, complexation constant (Scatchard) / Fmax/F0, fluorescence growth at 100% binding / K1Sc, complexation constant (Scatchard): dsDNA; for KeffHill, effective complexation constant (Hill) / KeffBH, effective complexation constant (Benesi–Hildebrand): PBS buffer; for KeffBH, effective complexation constant (Benesi–Hildebrand): fluorescent titration; for αb, proportion of bound dye: cbiomol = 5 × 10^−5 mol L^−1; for K2Sc, complexation constant (Scatchard): constant and nSc both varied; for Fmax/F0, fluorescence growth at 100% binding: from the Benesi–Hildebrand dependence; for K1Sc, complexation constant (Scatchard): nSc = const = 10 b.p.; for LOQ: quantification of dsDNA
Text: as §1, §2, §4, §3, §5

T1 sequence (P02768 25-609): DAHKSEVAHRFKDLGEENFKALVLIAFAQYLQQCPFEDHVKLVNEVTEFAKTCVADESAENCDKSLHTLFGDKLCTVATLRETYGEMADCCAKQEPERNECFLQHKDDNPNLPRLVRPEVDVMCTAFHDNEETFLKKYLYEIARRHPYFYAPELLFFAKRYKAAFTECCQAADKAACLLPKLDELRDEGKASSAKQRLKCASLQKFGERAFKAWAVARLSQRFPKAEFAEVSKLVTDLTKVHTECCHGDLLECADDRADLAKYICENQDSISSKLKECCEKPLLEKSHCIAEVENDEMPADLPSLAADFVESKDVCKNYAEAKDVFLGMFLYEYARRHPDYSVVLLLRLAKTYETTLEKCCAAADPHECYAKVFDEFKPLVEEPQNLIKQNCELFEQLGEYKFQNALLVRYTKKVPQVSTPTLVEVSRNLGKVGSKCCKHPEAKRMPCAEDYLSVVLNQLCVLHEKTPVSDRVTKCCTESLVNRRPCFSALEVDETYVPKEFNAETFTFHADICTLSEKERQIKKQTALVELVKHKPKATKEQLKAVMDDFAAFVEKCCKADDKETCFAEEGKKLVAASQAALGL

Row | SMILES | LR, linear portion of fluorescence intensity vs. concentration plot [1] | nHill, Hill coefficient [1] | nSc, stoichiometric coefficient (Scatchard) [1] | KeffHill, effective complexation constant (Hill) [1] [L/mol] | KeffBH, effective complexation constant (Benesi–Hildebrand) [1] [L/mol] | αb, proportion of bound dye [1] [%] | Fmax/F0, fluorescence growth at 100% binding [1] | K2Sc, complexation constant (Scatchard) [1] [L/mol] | φfl^b, fluorescence quantum yield of the dye in the presence of biopolymer [1] [%] | LOD [1] [nM] | LOQ [1] [nM] | φfl^b, fluorescence quantum yield of the dye in the presence of biopolymer (ssDNA) [%] | LOD (ssDNA) [nM] | LOQ (ssDNA) [nM] | K1Sc, complexation constant (Scatchard) (ssDNA) [L/mol] | nHill, Hill coefficient (ssDNA) | KeffHill, effective complexation constant (Hill) (ssDNA) [L/mol] | KeffBH, effective complexation constant (Benesi–Hildebrand) (ssDNA) [L/mol] | αb, proportion of bound dye (ssDNA) [%] | K2Sc, complexation constant (Scatchard) (ssDNA) [L/mol] | also measured
1 | CCN1/C(=C/c2sc3ccccc3[n+]2CC)Sc2ccccc21 [MCD 3] | 0 to 1 µmol/L | 0.59 | 1 | 27800 | 17600 | 50 | 26 | 34000 | 50 | 77 | 230 | 4.7 ± 0.5 | 87 | 260 | 112000 | 0.76 | 2940 | 11600 | 37 | 430000 | φfl^b, fluorescence quantum yield of the dye in the presence of biopolymer ([1]; listed as 3): ~50 ± 6%; Fmax/F0, fluorescence growth at 100% binding (ssDNA): 71; nSc, stoichiometric coefficient (Scatchard) (ssDNA): 37; Ifl/Ifl0, relative increase in the fluorescence intensity (dsDNA): 79 times; hypochromia of the absorption band (dsDNA): 44%; φfl^b, fluorescence quantum yield of the dye in the presence of biopolymer (dsDNA): 4.8 ± 0.5%; LOD (dsDNA): 41 nM; nHill, Hill coefficient (dsDNA): 0.88; nSc, stoichiometric coefficient (Scatchard) (dsDNA): 35; KeffHill, effective complexation constant (Hill) (dsDNA): 6900 L/mol; KeffBH, effective complexation constant (Benesi–Hildebrand) (dsDNA): 13500 L/mol; αb, proportion of bound dye (dsDNA): 40%; K2Sc, complexation constant (Scatchard) (dsDNA): 480000 L/mol; Fmax/F0, fluorescence growth at 100% binding (dsDNA): 136; K1Sc, complexation constant (Scatchard) (dsDNA): 135000 L/mol; LOQ (dsDNA): 126 nM
2 | CCN1/C(=C/c2ccc3ccccc3[n+]2CC)C=Cc2ccccc21 [MCD 4] | 0.7–7.5 ^2 µmol L^−1 | 0.61 | 1 | 1830 | 4820 | 20 | 109 | 17000 | ~0.5 ± 0.1 | 730 | 2200 | ~1.4 ± 0.2 | 760 | 2300 | 65000 | 0.57 | 350 | 6800 | 25 | 19500 | drop in the apparent extinction coefficients ([1]; interaction with HSA): 1.5–2 fold; decrease of the observed extinction coefficients (ssDNA; cssDNA~8 × 10^−5 mol L^−1): 54%; Fmax/F0, fluorescence growth at 100% binding (ssDNA): 61; nSc, stoichiometric coefficient (Scatchard) (ssDNA): 3; Ifl/Ifl0, relative increase in the fluorescence intensity (dsDNA): 115 times; hypochromia of the absorption band (dsDNA): 36%; φfl^b, fluorescence quantum yield of the dye in the presence of biopolymer (dsDNA): ~1.5 ± 0.2%; LOD (dsDNA): 94 nM; nHill, Hill coefficient (dsDNA): 0.62; nSc, stoichiometric coefficient (Scatchard) (dsDNA): 2; KeffHill, effective complexation constant (Hill) (dsDNA): 1850 L/mol; KeffBH, effective complexation constant (Benesi–Hildebrand) (dsDNA): 19500 L/mol; αb, proportion of bound dye (dsDNA): 46%; K2Sc, complexation constant (Scatchard) (dsDNA): 37000 L/mol; Fmax/F0, fluorescence growth at 100% binding (dsDNA): 169; K1Sc, complexation constant (Scatchard) (dsDNA): 186000 L/mol; LOQ (dsDNA): 210 nM
